Assay results reported in PMC10269819, “Mitochondrial ADP/ATP Carrier 1 Is Important for the Growth of Toxoplasma Tachyzoites” (Microbiology Spectrum, 2023).

Key:
Assay type in all cases: cell-based
TgAAC1 [1] = biological target: T1, TgAAC1 (Toxoplasma gondii, UniProt Q9BJ36); assay: competition with [α-32P]ATP uptake by intact induced E. coli cells; conditions: unlabelled competitor 2.5 μM (100-fold excess); 25 nM [α-32P]ATP; 10 min; 50 mM potassium phosphate pH 7.0; 30 °C
T1 construct: full-length cDNA (318 residues) in pET-16b, HA-tagged; expressed in membrane of intact E. coli BL21(DE3)
T1 sequence (Q9BJ36 1-318): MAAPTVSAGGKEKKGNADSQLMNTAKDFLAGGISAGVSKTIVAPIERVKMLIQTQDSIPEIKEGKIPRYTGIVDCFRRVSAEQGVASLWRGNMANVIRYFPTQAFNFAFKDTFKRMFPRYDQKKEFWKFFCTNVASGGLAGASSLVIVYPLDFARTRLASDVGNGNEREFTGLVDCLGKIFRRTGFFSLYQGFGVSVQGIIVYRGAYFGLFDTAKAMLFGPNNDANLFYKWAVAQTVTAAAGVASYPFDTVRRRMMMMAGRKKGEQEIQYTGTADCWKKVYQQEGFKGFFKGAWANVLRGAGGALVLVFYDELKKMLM

TgAAC1 [2] = biological target: T1, TgAAC1; assay: as above; conditions: unlabelled competitor 2.5 μM (100-fold excess); 25 nM [α-32P]ATP; 10 min; 50 mM potassium phosphate pH 7.0; 30 °C; remark: listed apart in the source
TgAAC1 [3] = biological target: T1, TgAAC1; assay: uptake of [α-32P]ATP by intact induced E. coli cells; conditions: labelled compound; 25 nM [α-32P]ATP; 50 mM potassium phosphate pH 7.0; 30 °C; uninduced cells as control

Nc1ncnc2c1ncn2[C@@H]1O[C@H](COP(=O)(O)O)[C@@H](O)[C@H]1O [AMP]
% reduction of [α-32P]-ATP uptake at 2.5 μM (TgAAC1 [1]): 40%

Nc1ncnc2c1ncn2[C@@H]1O[C@H](COP(=O)(O)OP(=O)(O)O)[C@@H](O)[C@H]1O [ADP]
% reduction of [α-32P]-ATP transport at 2.5 μM (TgAAC1 [2]): ~ approximately 90%

Nc1ccn([C@@H]2O[C@H](COP(=O)(O)OP(=O)(O)OP(=O)(O)O)[C@@H](O)[C@H]2O)c(=O)n1 [CTP]
% reduction of [α-32P]-ATP uptake at 2.5 μM (TgAAC1 [1]): 45%

Nc1ncnc2c1ncn2[C@@H]1O[C@H](COP(=O)(O)OP(=O)(O)OP(=O)(O)O)[C@@H](O)[C@H]1O [ATP]
uptake of [α-32P]ATP by intact induced E. coli cells (TgAAC1 [3]): TgAAC1 could take up more ATP after induction compared to the noninduced group | % reduction of [α-32P]-ATP transport at 2.5 μM (TgAAC1 [2]): ~ approximately 90%
